Measurements as given in the OPERA property sets (Mansouri et al. 2018).
≈ marks a conversion by molar mass, not a printed value. Where a SMILES comes first, the peptide text is derived from it. The star is where a group is joined. NHtBu = CC(C)(C)N*

Settings: not given

Compound | logP | solubility
COCCOC(=O)C1=C(C)NC(C)=C(C(=O)OC(C)C)C1c1cccc([N+](=O)[O-])c1 (stereo unspecified) | 3.05 | 
O=C(NCCN1CCC(n2c(=O)[nH]c3cc(Cl)ccc32)CC1)c1ccc(F)cc1 | 4.63 | 
CNC(=O)CCc1ccccc1 | 1.17 | 
CCCCCCOc1ccc(N)cc1 | 3.64 | 
c1ccc2c(c1)ccc1cc3ccc4ccccc4c3cc12 | 6.54 | 
CCN(CC)P(=O)(N(CC)CC)N1CCCC1 | 2.39 | 
Oc1cccc2ncccc12 | 1.85 | 
O=[N+]([O-])c1ccc(Cl)c([N+](=O)[O-])c1 | 2.17 | 
CC(C)Nc1nc(Cl)nc(NCCO)n1 | 0.78 | 
ClC=C1C2CC(C(Cl)C2(Cl)Cl)C1(C(Cl)Cl)C(Cl)Cl (stereo unspecified) | 5.49 | 
COC(=O)c1ccccc1S(N)(=O)=O | 0.01 | 
CCOCCOCCO | -0.54 | 
CCCCC(=O)OCC1OC(n2cnc3c(OC)ncnc32)C(OC(=O)CCCC)C1O (stereo unspecified) | 3.58 | 
Nc1cc(Cl)c(S(N)(=O)=O)cc1S(N)(=O)=O | -0.41 | 
Sc1nc2ccccc2s1 | 2.42 | 
Clc1ccc(-c2ccccc2Cl)cc1Cl | 5.87 | 
O=C(O)c1ccccc1Nc1cccc(Cl)c1 | 5.43 | 
CCc1ccc(C=[N+]([O-])C(C)(C)C)cc1 | 2.19 | 
CCCCCCC(C)O (stereo unspecified) | 2.9 | 
COCC(C)OC(=O)C(N)Cc1ccc(O)c(O)c1 (stereo unspecified) | 0.08 | 
CC(=O)OCN1C(=O)NC(c2ccccc2)(c2ccccc2)C1=O | 2.23 | 
CCCOC(=O)NCCCN(C)C | 1.12 | 
CCCCCCN1CC(C(=O)OC)CC1=O (stereo unspecified) | 2.3 | 
Cc1ccc(-c2ccc(C)cc2)cc1 | 5.09 | 
CCCCCN(CCCCC)N=O | 3.86 | 

Compound | logP | solubility
NC(=O)C=Cc1ccc([N+](=O)[O-])o1 | 0.65 | 
Nc1nc(=O)n([C@H]2CC[C@@H](CO)O2)cc1F | -1.09 | 
Cc1cc(Cl)c(C(C)C)cc1Cl | 5.6 | 
NC(=O)CC[C@H](NS(=O)(=O)c1ccccc1)C(=O)O | 0.33 | 
CC(CCC(=O)O)C1CCC2C3C(O)C(O)C4CC(O)CCC4(C)C3CCC12C (stereo unspecified) | 2.8 | 
O=P(O)(O)CN(CCCCCCN(CP(=O)(O)O)CP(=O)(O)O)CP(=O)(O)O | -4.43 | 30.5 mM (≈ 15000 µg/mL)
CCOCCOCCOCC | 0.39 | 
CN(C)c1ccc(N=c2snc3sc(S(N)(=O)=O)nn23)cc1 | 2.32 | 
O=C(Nc1ccc(Cl)cc1)c1cccc([N+](=O)[O-])c1O | 2.16 | 
O=C1c2ccccc2C(=O)c2c(O)cccc21 | 3.52 | 
[O-][N+](=Cc1ccccc1)c1ccccc1 | 1.88 | 
CCOC(=O)CCC(=O)OCC | 1.2 | 
CC(=O)NC(C)C(=O)NC(CCC(=O)O)C(=O)NC(C)(C)C (stereo not drawn) (Ac-Ala-Glu-NHtBu; configuration not given here) | -0.67 | 
C/C=C(/C)C(=O)O[C@H]1CCN2CC=C(COC(=O)[C@](O)([C@H](C)OC)C(C)(C)O)[C@H]12 | 1.28 | 
CCCNC1=NC(=O)C(=Cc2ccc([N+](=O)[O-])o2)S1 | 1.24 | 
CCOC(=O)[C@@H](N)Cc1ccc(O)cc1 | 0.72 | 
Cc1cc(Cc2cc(Cl)ccc2Cl)c(Cl)cc1Cl | 7.53 | 
CCOCCn1cnc2c(=N)n(C)c(=O)[nH]c21 | -0.4 | 
ClC1=C(Cl)C2(Cl)C3C(Cl)C(Cl)CC3C1(Cl)C2(Cl)Cl (stereo unspecified) | 6.16 | 
CN(C)c1ccc(C=NNC(=N)N)cc1 | 0.28 | 
Cc1c(Cl)cccc1[N+](=O)[O-] | 3.09 | 
CC(CCl)OC(C)CCl (stereo unspecified) | 2.48 | 
CCCCC1CO1 (stereo unspecified) | 1.95 | 
O=S(=O)(C(Cl)(Cl)Cl)C(Cl)(Cl)Cl | 3.3 | 
COCc1ccc(COC)cc1 | 1.28 | 

Compound | logP | solubility
CCC(C)n1ncn(-c2ccc(N3CCN(c4ccc(OC[C@H]5CO[C@](Cn6cncn6)(c6ccc(Cl)cc6Cl)O5)cc4)CC3)cc2)c1=O (stereo partly specified) | 5.66 | 
Oc1ccc2c(c1)OCC1c3cc4c(cc3OC21)OCO4 (stereo unspecified) | 2.61 | 
O=C1CCC(c2ccc[n+]([O-])c2)N1 (stereo unspecified) | -1.01 | 
CCCCn1ccc(=O)c(O)c1 | 0.72 | 
N#CCCl |  | 1320 mM (≈ 100000 µg/mL)
COc1cccc(N=C=S)c1 | 3.68 | 
CCCC(=O)n1ncc2c(O)ncnc21 | 0.85 | 
CC(=O)n1ncc2c(O)ncnc21 | -0.35 | 
N#CCCN(N)c1nc2cc(Cl)ccc2o1 | 1.72 | 
COc1cccc(N=c2snc3sc(S(N)(=O)=O)nn23)c1 | 2.66 | 
c1cnc2c(c1)cc1ccc3cccc4ccc2c1c34 | 5.53 | 
OCc1cc(Br)cc(Br)c1O | 2.72 | 
Clc1ccc(Nc2cc3nc4ccccc4n(-c4ccc(Cl)cc4)c-3cc2=NCCCN2CCCC2)cc1 | 7.17 | 
Cc1cn([C@H]2CC[C@@H](CO)O2)c(=O)[nH]c1=S | 0.44 | 
CC(C(=O)Nc1ccc([N+](=O)[O-])c(C(F)(F)F)c1)C(F)(F)F (stereo unspecified) | 3.71 | 
CCOc1ccc([N+](=O)[O-])cc1NC(=O)CC | 1.85 | 
CC(C)(C#N)/N=N/C(C)(C)C#N | 1.1 | 
CCCCCCCCCCCCN1CCCC1=O | 4.2 | 
CCN1CCCC1CNC(=O)c1c(OC)ccc(Br)c1O (stereo unspecified) | 2 | 
CC(C)(C)[N+]([O-])=Cc1ccc(F)cc1 | 1.42 | 
CC(C)C1(C)N=C(c2ncccc2C(=O)O)NC1=O (stereo unspecified) | 0.22 | 
CCCCCCCCCCCCOC(=O)c1ccc(N)cc1 |  | 1.58e-05 mM (≈ 0.00484 µg/mL)
Brc1cccc(-c2ccccc2)c1 | 4.85 | 
Clc1ccc(Cn2cncn2)cc1 | 1.84 | 
c1ccc2c(c1)sc1ccccc12 |  | 0.00798 mM (≈ 1.47 µg/mL)

Compound | logP | solubility
O=C1OC(=Nc2ccc(Cl)cc2)C2=C1CCCC2 | 3.84 | 
CC(N)CCc1ccccc1 (stereo unspecified) | 2.12 | 
C=C(C)C1CC=C(C)CC1 (stereo unspecified) | 4.57 | 
Clc1cc(Cl)c(-c2cc(Cl)c(Cl)cc2Cl)cc1Cl | 6.34 | 
Nc1c(Cl)c(Cl)c(N)c2c1C(=O)c1ccccc1C2=O | 4.56 | 
ClCc1ccc(Cl)cc1 | 3.18 | 
Cc1cccc(O[Si]23OCCN(CCO2)CCO3)c1 | 0.15 | 
CCCCCCCCCC(C)=O | 4.09 | 
COc1c2occc2cc2ccc(=O)oc12 | 2 | 
Cc1ccc(O[Si]23OCCN(CCO2)CCO3)cc1 | 0.08 | 
C[Si]1(C)O[Si](C)(C)O[Si](C)(C)O[Si](C)(C)O[Si](C)(C)O[Si](C)(C)O1 | 9.06 | 
ClCCCBr | 2.18 | 
COC(=O)C(C)Oc1ccc(Oc2ccc(Cl)cc2Cl)cc1 (stereo unspecified) | 4.62 | 
CC(=O)OC(c1ccc(Cl)c(Cl)c1)C(Cl)(Cl)Cl (stereo unspecified) | 4.92 | 
Clc1ccc2c(Cl)ccnc2c1 | 3.57 | 
CCCOC(=O)CCC(=O)OCCC | 2.16 | 
O=c1cc(CO)occ1O | -0.64 | 
CC=CCCCCC | 4.51 | 
CCN(CC)P(=O)(N(CC)CC)N(CC)CC | 2.53 | 
CCCCCCOC(=O)c1ccccc1C(=O)OCCCCCC | 6.82 | 
CCC(C)CO (stereo unspecified) | 1.29 | 
COC(=O)C(C#N)=Cc1ccco1 | 1.65 | 

Same assay, conditions: 20 °C

Compound | solubility
CCN(C(=O)n1nnn(-c2ccccc2Cl)c1=O)C1CCCCC1 | 0.00658 mM (≈ 2.3 µg/mL)
CC1CCC(O)CC1 (stereo unspecified) | 131 mM (≈ 15000 µg/mL)
CCc1cccc(C)c1N(C(=O)CCl)C(C)COC (stereo unspecified) | 1.87 mM (≈ 530 µg/mL)
CN(C)C(=N)N | 18.6 mM (≈ 1620 µg/mL)

Same assay, conditions: 22 °C

Compound | solubility
CCCCC(CC)COC(=O)CCCCC(=O)OCC(CC)CCCC (stereo unspecified) | 0.0021 mM (≈ 0.78 µg/mL)

Same assay, conditions: 22.0 °C

Compound | log10 OH rate constant (cm³/molecule/s)
Cc1ccc(C(C)C)cc1 | -10.8

Same assay, conditions: 23 °C

Compound | solubility
CCOc1cc(OP(=S)(OC)OC)nc(CC)n1 | 0.137 mM (≈ 40 µg/mL)
C[Si]1(C)O[Si](C)(C)O[Si](C)(C)O[Si](C)(C)O[Si](C)(C)O[Si](C)(C)O1 | 1.15e-05 mM (≈ 0.0051 µg/mL)

Same assay, conditions: 23.0 °C

Compound | log10 OH rate constant (cm³/molecule/s)
CCOCCOCCO | -10.2
CC1=CC[C@@]23CC1C(C)(C)[C@@H]2CC[C@H]3C | -10.2
CCC(=O)CO | -11.1
CC1=CCC(=O)O1 | -10.2

Same assay, conditions: 24 °C

Compound | solubility
Sc1nc2ccccc2s1 | 0.658 mM (≈ 110 µg/mL)
CC1CN(N=O)CC(C)O1 (stereo unspecified) | 860 mM (≈ 124000 µg/mL)
Clc1cc(Cl)c(-c2cc(Cl)c(Cl)cc2Cl)cc1Cl | 2.63e-06 mM (≈ 0.00095 µg/mL)

Same assay, conditions: 24.0 °C

Compound | log10 OH rate constant (cm³/molecule/s)
c1ccc2c(c1)sc1ccccc12 | -11.1

Same assay, conditions: 25 °C

Compound | solubility
c1ccc2c(c1)ccc1cc3ccc4ccccc4c3cc12 | 3.7e-06 mM (≈ 0.00103 µg/mL)
Clc1ccc(-c2ccc(Cl)c(Cl)c2Cl)cc1Cl | 1.04e-05 mM (≈ 0.0034 µg/mL)
Clc1cc(Cl)c(Cl)cc1Cl | 0.00276 mM (≈ 0.595 µg/mL)
O=[N+]([O-])c1ccc(F)cc1O | 8.91 mM (≈ 1400 µg/mL)
CCCCN(CCO)CCCC | 23.1 mM (≈ 4000 µg/mL)
CON(C)C(=O)Nc1ccc(Cl)c(Cl)c1 | 0.301 mM (≈ 75 µg/mL)
Brc1cc(Br)c(OCCOc2c(Br)cc(Br)cc2Br)c(Br)c1 | 0.000291 mM (≈ 0.2 µg/mL)
NNc1ccccc1 | 1170 mM (≈ 127000 µg/mL)
CC(C)c1ccccc1 | 0.51 mM (≈ 61.3 µg/mL)
O=C1c2ccccc2C(=O)c2c(O)cccc21 | 0.0379 mM (≈ 8.5 µg/mL)
Cc1ccc(O)c(C)c1 | 64.4 mM (≈ 7870 µg/mL)
O=C(O)C1CCCCC1 | 35.9 mM (≈ 4600 µg/mL)
COc1cc(Cl)ccc1O | 31.5 mM (≈ 5000 µg/mL)
CNC1(c2ccccc2Cl)CCCCC1=O.Cl (stereo unspecified) | 729 mM
ClC1=C(Cl)C2(Cl)C3C(Cl)C(Cl)CC3C1(Cl)C2(Cl)Cl (stereo unspecified) | 0.000137 mM (≈ 0.056 µg/mL)
c1ccc2c(c1)[nH]c1ccccc12 | 0.0108 mM (≈ 1.8 µg/mL)

Compound | solubility
CCC(CO)(CO)COCC(CC)(CO)CO | 104 mM (≈ 26000 µg/mL)
CCN(N=O)C(N)=O | 111 mM (≈ 13000 µg/mL)
CC(C)(C#N)/N=N/C(C)(C)C#N | 2.13 mM (≈ 350 µg/mL)
O=[N+]([O-])c1cc(Cl)ccc1Cl | 0.0729 mM (≈ 14 µg/mL)
CCCCCCCCCl | 0.0329 mM (≈ 4.89 µg/mL)
CC(N)=S | 2170 mM (≈ 163000 µg/mL)
O=C1OC(=O)c2ccccc21 | 41.9 mM (≈ 6200 µg/mL)
C=C(C)C1CC=C(C)CC1 (stereo unspecified) | 0.0777 mM (≈ 10.6 µg/mL)
CC(C)C(O)C(C)(C)CO (stereo unspecified) | 130 mM (≈ 19000 µg/mL)
CC(=O)C=CC1=C(C)CCCC1(C)C | 0.879 mM (≈ 169 µg/mL)
O=[N+]([O-])c1ccc(Nc2ccc(O)cc2)c([N+](=O)[O-])c1 | 0.0036 mM (≈ 0.99 µg/mL)
FC(F)(F)C(F)(Cl)Cl | 0.801 mM (≈ 137 µg/mL)
Cc1ccc(C(C)C)cc1 | 0.174 mM (≈ 23.4 µg/mL)
Clc1cc2c(oc3c(Cl)c(Cl)c(Cl)c(Cl)c32)c(Cl)c1Cl | 3.3e-09 mM (≈ 1.35e-06 µg/mL)
CCCCCCOC(=O)c1ccccc1C(=O)OCCCCCC | 0.000149 mM (≈ 0.05 µg/mL)
CCCCCCCCCCCCCCC | 3.58e-07 mM (≈ 7.6e-05 µg/mL)

Same assay, conditions: 25.0 °C

Compound | log10 OH rate constant (cm³/molecule/s)
C1CC2CCCC2C1 (stereo unspecified) | -11
CCCCl | -12
C/C(C=O)=C\C=C\C=O | -9.93
CC(C)CC(=O)CC(C)C | -10.6
CC(C)Cl | -12
CCNC(=O)OCC | -10.8
C1CN2CCN1CC2 | -10.7
O=CC(F)F | -11.8
COC(=O)OC | -12.5
CI | -13.1
C=C1CCC2(C(C)C)CC12 (stereo unspecified) | -9.93
FC(Br)C(F)(F)F (stereo unspecified) | -13.8

Same assay, conditions: 27.0 °C

Compound | log10 OH rate constant (cm³/molecule/s)
CCc1ccco1 | -9.97

Same assay, conditions: 30 °C

Compound | solubility
CNC(=O)Oc1cccc(C(C)C)c1 | 0.44 mM (≈ 85 µg/mL)

Same assay, conditions: pH 7.0

Compound | logD
Cc1nn(-c2cc(NS(C)(=O)=O)c(Cl)cc2Cl)c(=O)n1C(F)F | 0.99
